≈ marks a conversion by molar mass, not a printed value.
Columns and labels:
Enterococcus sp. = assay: In vitro antibacterial evaluation: minimum inhibitory concentration (MIC), broth dilution method; type: cell-based; conditions: for MIC Enterococcus avium (GC 4558): strain GC 4558
Summary of the method: (§1)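 Values are minimum inhibitory concentrations, meaning the smallest antibiotic concentration that stops growth of the organism. They come from broth dilution in Muller-Hinton II […] per NCCLS guidance (M7-A2), using 5×10^5 CFU/mL and concentrations from 64 to 0.06 μg/mL.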

Escherichia coli = assay: as above; type: cell-based; conditions: strain GC 4560
Summary of the method: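 Broth dilution per NCCLS M7-A2 in Muller-Hinton II […], inoculum 5×10^5 CFU/mL, antibiotic tested over 64-0.06 μg/mL. MIC is taken as the lowest concentration that inhibits growth. Panel includes recent clinical isolates resistant to methicillin, penicillin and/or vancomycin.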

Streptococcus sp. = assay: as above; type: cell-based
Summary of the method: as §1

[1] = tested on: Staphylococcus aureus-SMITH (GC 4543); assay: Acute lethal infection in mice (ED50); type: in vivo; conditions: female CD-1 mice, intraperitoneal challenge, intravenous dose 30 min. after infection, 7 day survival ratios
Summary of the method: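 ED50 derived from pooled 7-day survival in three separate experiments, five mice per dose level. Single intravenous dose 30 min after intraperitoneal infection of female CD-1 mice with enough bacteria to kill untreated animals in 24-48 h.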

[2] = Anatomic pathology (heart and kidney histopathology) in mice; type: in vivo, CD-1 mice; conditions: 20 mg/kg intravenously daily for 9 days, microscopic histopathology on day 10
Method: 20-day-old CD-1 mice were divided into a vehicle control group (5 mice) and a treatment group (5 mice). Samples of glycopeptide antibiotics were administered at 20 mg/kg intravenously daily for 9 days.
Samples of tissues from necropsied mice were formalin-fixed, paraffin-embedded, sectioned, stained with hematoxylin and eosin, and examined microscopically. Histopathologic findings were recorded. These findings were subjectively graded on a scale corresponding to slight, mild, moderate, marked and severe as compared to untreated controls.

[3] = Streptococcus pneumoniae (GC 1894), broth dilution, 18 hours at 35° C.
[4] = Streptococcus pneumoniae (GC 4565), broth dilution, 18 hours at 35° C.

Q: Which “MIC Enterococcus faecalis (GC 4553)” value (Enterococcus sp.; strain GC 4553) does the source give for `CC(c1ccccc1)C1NC(=O)CNC(=O)C(CO)NC(=O)C(C(O)C2CN(CCCCCCCCCCC(=O)O)C(=N)N2C2OC(CO)C(O)C(O)C2O)NC(=O)C(C(O)C2CNC(=N)N2)NC(=O)C(Cc2ccc(OC3OC(CO)C(OC4OC(CO)C(O)C(O)C4O)C(O)C3O)cc2)NC1=O` (stereo not drawn) [Example 72, Cyclo[glycyl-β-methylphenylalanyl-O-(4-O-hexopyranosylhexopyranosyl)tyrosyl-3-(2-iminoimidazolidin-4-yl)seryl-3-[1-(10-carboxydecyl)-3-hexopyranosyl-2-iminoimidazolidin-4-yl]serylseryl]] here?
A: 64 µg/mL (≈ 43.3 µM)

Q: What about the “MIC Enterococcus avium (GC 4558)” value (Enterococcus sp.) of the same molecule?
A: 64 µg/mL (≈ 43.3 µM)

Q: And the “MIC Escherichia coli (GC 4560)” value (Escherichia coli)?
A: 32 µg/mL (≈ 21.6 µM)

Q: What about the “MIC Streptococcus pneumoniae (ATCC 6301)” value (Streptococcus sp.; Streptococcus pneumoniae (ATCC 6301), broth dilution, 18 hours at 35° C.) of the same molecule?
A: 64 µg/mL (≈ 43.3 µM)

Q: And the “MIC Streptococcus pneumoniae (GC 1894)” value (Streptococcus sp.; [3])?
A: 16 µg/mL (≈ 10.8 µM)

Q: What about the “MIC Streptococcus pneumoniae (GC 4565)” value (Streptococcus sp.; [4]) of the same molecule?
A: 64 µg/mL (≈ 43.3 µM)

Q: And the “MIC Streptococcus pyogenes (GC 4563)” value (Streptococcus sp.; Streptococcus pyogenes (GC 4563), broth dilution, 18 hours at 35° C.)?
A: 64 µg/mL (≈ 43.3 µM)

Q: And the “MIC Streptococcus pneumoniae (ATCC 6301)” value (Streptococcus sp.; strain ATCC 6301)?
A: 64 µg/mL (≈ 43.3 µM)

Q: And the “MIC Streptococcus pneumoniae (GC 1894)” value (Streptococcus sp.; strain GC 1894)?
A: 16 µg/mL (≈ 10.8 µM)

Q: And the “MIC Streptococcus pyogenes (GC 4563)” value (Streptococcus sp.; strain GC 4563)?
A: 64 µg/mL (≈ 43.3 µM)

Q: What about the “MIC Streptococcus pneumoniae (GC 4565)” value (Streptococcus sp.; strain GC 4565) of the same molecule?
A: 64 µg/mL (≈ 43.3 µM)

Q: What about the “median effective dose (ED50), Staphylococcus aureus-SMITH (GC 4543)” value [1] of the same molecule?
A: >8

Q: What about the “Anatomical Pathology (Day 10), Heart” value [2] of the same molecule?
A: 0

Q: What about the “Anatomical Pathology (Day 10), Kidney” value [2] of the same molecule?
A: ++

Q: What does the source list for `CC(c1ccccc1)C1NC(=O)CNC(=O)C(CO)NC(=O)C(C(O)C2CN(CCCCCCCCCCCCO)C(=N)N2C2OC(CO)C(O)C(O)C2O)NC(=O)C(C(O)C2CNC(=N)N2)NC(=O)C(Cc2ccc(OC3OC(CO)C(OC4OC(CO)C(O)C(O)C4O)C(O)C3O)cc2)NC1=O` (stereo not shown) [Example 61]?
A: MIC Enterococcus avium (GC 4558) (Enterococcus sp.): 64 µg/mL (≈ 43.3 µM); MIC Escherichia coli (GC 4560) (Escherichia coli): 8 µg/mL (≈ 5.41 µM); MIC Streptococcus pneumoniae (GC 1894) (Streptococcus sp.; [3]): 64 µg/mL (≈ 43.3 µM); MIC Streptococcus pneumoniae (GC 4565) (Streptococcus sp.; [4]): 64 µg/mL (≈ 43.3 µM); MIC Streptococcus pneumoniae (GC 1894) (Streptococcus sp.; strain GC 1894): 64 µg/mL (≈ 43.3 µM); MIC Streptococcus pneumoniae (GC 4565) (Streptococcus sp.; strain GC 4565): 64 µg/mL (≈ 43.3 µM); median effective dose (ED50), Staphylococcus aureus-SMITH (GC 4543) [1]: >8; Anatomical Pathology (Day 10), Heart [2]: 0; Anatomical Pathology (Day 10), Kidney [2]: +++

Q: Which results are given for `CC(c1ccccc1)C1NC(=O)CNC(=O)C(CO)NC(=O)C(C(O)C2CN(Cc3ccccc3-c3ccccc3)C(=N)N2C2OC(CO)C(O)C(O)C2O)NC(=O)C(C(O)C2CNC(=N)N2)NC(=O)C(Cc2ccc(OC3OC(CO)C(OC4OC(CO)C(O)C(O)C4O)C(O)C3O)cc2)NC1=O` (stereo not shown) [Example 65]?
A: MIC Escherichia coli (GC 4560) (Escherichia coli): 32 µg/mL (≈ 21.9 µM); median effective dose (ED50), Staphylococcus aureus-SMITH (GC 4543) [1]: >8; Anatomical Pathology (Day 10), Heart [2]: 0; Anatomical Pathology (Day 10), Kidney [2]: +++

Q: Which results are given for `CC(c1ccccc1)C1NC(=O)CNC(=O)C(CO)NC(=O)C(C(O)C2CN(Cc3ccccc3)C(=N)N2C2OC(CO)C(O)C(O)C2O)NC(=O)C(C(O)C2CNC(=N)N2)NC(=O)C(Cc2ccc(OC3OC(CO)C(OC4OC(CO)C(O)C(O)C4O)C(O)C3O)cc2)NC1=O` (stereo not drawn) [Example 59, Cyclo[glycyl-β-methylphenylalanyl-O-(4-O-hexopyranosylhexopyranosyl)tyrosyl-(2-iminoimidazolidin-4-yl)seryl-3-[1-benzyl-3-hexopyranosyl-2-iminoimidazolidin-4-yl]serylseryl]]?
A: MIC Streptococcus pneumoniae (GC 1894) (Streptococcus sp.; [3]): 64 µg/mL (≈ 46.2 µM); MIC Streptococcus pneumoniae (GC 1894) (Streptococcus sp.; strain GC 1894): 64 µg/mL (≈ 46.2 µM); median effective dose (ED50), Staphylococcus aureus-SMITH (GC 4543) [1]: >8; Anatomical Pathology (Day 10), Heart [2]: 0; Anatomical Pathology (Day 10), Kidney [2]: 0

Q: What does the source list for `CC(c1ccccc1)C1NC(=O)CNC(=O)C(CO)NC(=O)C(C(O)C2CN(Cc3ccc4ccccc4c3)C(=N)N2C2OC(CO)C(O)C(O)C2O)NC(=O)C(C(O)C2CNC(=N)N2)NC(=O)C(Cc2ccc(OC3OC(CO)C(OC4OC(CO)C(O)C(O)C4O)C(O)C3O)cc2)NC1=O` (stereo not shown) [Example 67]?
A: MIC Enterococcus avium (GC 4558) (Enterococcus sp.): 64 µg/mL (≈ 44.6 µM); MIC Escherichia coli (GC 4560) (Escherichia coli): 32 µg/mL (≈ 22.3 µM); MIC Streptococcus pneumoniae (GC 1894) (Streptococcus sp.; [3]): 64 µg/mL (≈ 44.6 µM); MIC Streptococcus pneumoniae (GC 1894) (Streptococcus sp.; strain GC 1894): 64 µg/mL (≈ 44.6 µM); median effective dose (ED50), Staphylococcus aureus-SMITH (GC 4543) [1]: >8; Anatomical Pathology (Day 10), Heart [2]: 0; Anatomical Pathology (Day 10), Kidney [2]: 0

Q: Which “MIC Escherichia coli (GC 4560)” value (Escherichia coli) does the source give for `CC(c1ccccc1)C1NC(=O)CNC(=O)C(CO)NC(=O)C(C(O)C2CN(Cc3ccc(C(C)(C)C)cc3)C(=N)N2C2OC(CO)C(O)C(O)C2O)NC(=O)C(C(O)C2CNC(=N)N2)NC(=O)C(Cc2ccc(OC3OC(CO)C(OC4OC(CO)C(O)C(O)C4O)C(O)C3O)cc2)NC1=O` (stereo not drawn) [Example 60, Cyclo[glycyl-β-methylphenylalanyl-O-(4-O-hexopyranosylhexopyranosyl)tyrosyl-(2-iminoimidazolidin-4-yl)seryl-3-[1-(4-tert-butylbenzyl)-3-hexopyranosyl-2-iminoimidazolidin-4-yl]-serylseryl]] here?
A: 16 µg/mL (≈ 11.1 µM)

Q: What about the “MIC Streptococcus pneumoniae (GC 1894)” value (Streptococcus sp.; [3]) of the same molecule?
A: 64 µg/mL (≈ 44.4 µM)

Q: What about the “MIC Streptococcus pneumoniae (GC 1894)” value (Streptococcus sp.; strain GC 1894) of the same molecule?
A: 64 µg/mL (≈ 44.4 µM)

Q: And the “median effective dose (ED50), Staphylococcus aureus-SMITH (GC 4543)” value [1]?
A: >8

Q: And the “Anatomical Pathology (Day 10), Heart” value [2]?
A: 0

Q: What about the “Anatomical Pathology (Day 10), Kidney” value [2] of the same molecule?
A: 0

Q: Which results are given for `CC(c1ccccc1)C1NC(=O)CNC(=O)C(CO)NC(=O)C(C(O)C2CN(Cc3ccc(-c4ccccc4)cc3)C(=N)N2C2OC(CO)C(O)C(O)C2O)NC(=O)C(C(O)C2CNC(=N)N2)NC(=O)C(Cc2ccc(OC3OC(CO)C(OC4OC(CO)C(O)C(O)C4O)C(O)C3O)cc2)NC1=O` (stereo not shown) [Example 66a]?
A: MIC Escherichia coli (GC 4560) (Escherichia coli): 8 µg/mL (≈ 5.47 µM); median effective dose (ED50), Staphylococcus aureus-SMITH (GC 4543) [1]: >4; Anatomical Pathology (Day 10), Heart [2]: 0; Anatomical Pathology (Day 10), Kidney [2]: ++

From patent US8247211B2, “Glycopeptide antibiotics” (American Cyanamid Company, priority 2001, dated 2012)
